Converted amounts (≈) assume the structure as drawn. Read-outs that look alike come from different tables or passages of the source.
Columns and labels:
Assay in all cases: MIC, broth microdilution
E. coli GC 2235 = conditions: Escherichia coli
E. coli GC 2233 = conditions: Escherichia coli
E. coli GC 2234 = conditions: Escherichia coli
E. coli GC 2270 = conditions: Escherichia coli
E. coli GC 2271 = conditions: Escherichia coli
E. coli GC 4559 = conditions: Escherichia coli
Protocol: Antimicrobial susceptibility testing. The in vitro activities of the antibiotics are determined by the broth microdilution method as recommended by the National Committee for Clinical Laboratory Standards (NCCLS) (1). Mueller-Hinton II broth (MHBII)(BBL Cockeysville, Md.) is the medium employed in the testing procedures. Microtiter plates containing serial dilutions of each antimicrobial agent are inoculated with each organism to yield the appropriate density (10^5 CFU/ml) in a 100 μl final volume. The plates are incubated for 18-22 hours at 35° C. in ambient air.
Representative compounds were first incubated in mouse serum for an hour prior to the in vitro testing against a panel of selected gram-positive and gram-negative bacteria strains. All compounds were also pre-incubated in water for an hour prior to testing as control. Representative compounds of Formula I were incubated in human serum prior to MIC determination.

E. coli GC 4560 = conditions: Escherichia coli
E. coli GC 6465 = conditions: Escherichia coli
E. coli GC 3226 = conditions: Escherichia coli
E. coli GC 2203 = conditions: Escherichia coli
E. coli GC 1073 = conditions: Escherichia coli
S. typhimurium GC 2172 = conditions: Salmonella enterica, TYPHIMURIUM
S. aureus GC 6466 = conditions: Staphylococcus aureus
S. aureus GC 6467 = conditions: Staphylococcus aureus
S. aureus GC 1079 = conditions: Staphylococcus aureus
S. aureus GC 6335 = conditions: Staphylococcus aureus
S. aureus GC 6469 = conditions: Staphylococcus aureus
E. faecium GC 4556 = conditions: Enterococcus faecium
S. pyogenes GC 4563 = conditions: Streptococcus pyogenes
S. agalactiae GC 4564 = conditions: Streptococcus agalactiae

Cc1ccc(C(=O)OCOC(=O)N(CC(=O)Nc2cc(N(C)C)c3c(c2O)C(=O)C2=C(O)[C@]4(O)C(=O)C(C(N)=O)=C(O)[C@@H](N(C)C)[C@@H]4C[C@@H]2C3)C(C)(C)C)cc1 [Example 47]
MIC (E. coli GC 2235; GC2235, read-out: MINIMAL INHIBITORY CONCENTRATION MIC, pre-incubated in Human Serum): 16 µg/mL (≈ 20.6 µM) | MIC (E. coli GC 2235; GC2235, read-out: MINIMAL INHIBITORY CONCENTRATION MIC, pre-incubated in Mouse Serum): 1 µg/mL (≈ 1.29 µM) | MIC (E. coli GC 2235; GC2235, read-out: MINIMAL INHIBITORY CONCENTRATION MIC, pre-incubated in Water): > 64 µg/mL | MIC (E. coli GC 2233; GC2233, read-out: MINIMAL INHIBITORY CONCENTRATION MIC, pre-incubated in Human Serum): 16 µg/mL (≈ 20.6 µM) | MIC (E. coli GC 2233; GC2233, read-out: MINIMAL INHIBITORY CONCENTRATION MIC, pre-incubated in Mouse Serum): 0.5 µg/mL (≈ 0.643 µM) | MIC (E. coli GC 2233; GC2233, read-out: MINIMAL INHIBITORY CONCENTRATION MIC, pre-incubated in Water): > 64 µg/mL | MIC (E. coli GC 2234; GC2234, read-out: MINIMAL INHIBITORY CONCENTRATION MIC, pre-incubated in Human Serum): 16 µg/mL (≈ 20.6 µM) | MIC (E. coli GC 2234; GC2234, read-out: MINIMAL INHIBITORY CONCENTRATION MIC, pre-incubated in Mouse Serum): 1 µg/mL (≈ 1.29 µM) | MIC (E. coli GC 2234; GC2234, read-out: MINIMAL INHIBITORY CONCENTRATION MIC, pre-incubated in Water): > 64 µg/mL | MIC (E. coli GC 2270; GC2270, read-out: MINIMAL INHIBITORY CONCENTRATION MIC, pre-incubated in Human Serum): 16 µg/mL (≈ 20.6 µM) | MIC (E. coli GC 2270; GC2270, read-out: MINIMAL INHIBITORY CONCENTRATION MIC, pre-incubated in Mouse Serum): 0.5 µg/mL (≈ 0.643 µM) | MIC (E. coli GC 2270; GC2270, read-out: MINIMAL INHIBITORY CONCENTRATION MIC, pre-incubated in Water): > 64 µg/mL | MIC (E. coli GC 2271; GC2271, read-out: MINIMAL INHIBITORY CONCENTRATION MIC, pre-incubated in Human Serum): 16 µg/mL (≈ 20.6 µM) | MIC (E. coli GC 2271; GC2271, read-out: MINIMAL INHIBITORY CONCENTRATION MIC, pre-incubated in Mouse Serum): 1 µg/mL (≈ 1.29 µM) | MIC (E. coli GC 2271; GC2271, read-out: MINIMAL INHIBITORY CONCENTRATION MIC, pre-incubated in Water): > 64 µg/mL | MIC (E. coli GC 4559; GC4559, read-out: MINIMAL INHIBITORY CONCENTRATION MIC, pre-incubated in Human Serum): 64 µg/mL (≈ 82.3 µM) | MIC (E. coli GC 4559; GC4559, read-out: MINIMAL INHIBITORY CONCENTRATION MIC, pre-incubated in Mouse Serum): 2 µg/mL (≈ 2.57 µM) | MIC (E. coli GC 4559; GC4559, read-out: MINIMAL INHIBITORY CONCENTRATION MIC, pre-incubated in Water): > 64 µg/mL | MIC (E. coli GC 4560; GC4560, read-out: MINIMAL INHIBITORY CONCENTRATION MIC, pre-incubated in Human Serum): 4 µg/mL (≈ 5.14 µM) | MIC (E. coli GC 4560; GC4560, read-out: MINIMAL INHIBITORY CONCENTRATION MIC, pre-incubated in Mouse Serum): 1 µg/mL (≈ 1.29 µM) | MIC (E. coli GC 4560; GC4560, read-out: MINIMAL INHIBITORY CONCENTRATION MIC, pre-incubated in Water): 16 µg/mL (≈ 20.6 µM) | MIC (E. coli GC 6465; GC6465, read-out: MINIMAL INHIBITORY CONCENTRATION MIC, pre-incubated in Human Serum): > 64 µg/mL | MIC (E. coli GC 6465; GC6465, read-out: MINIMAL INHIBITORY CONCENTRATION MIC, pre-incubated in Mouse Serum): 2 µg/mL (≈ 2.57 µM) | MIC (E. coli GC 6465; GC6465, read-out: MINIMAL INHIBITORY CONCENTRATION MIC, pre-incubated in Water): > 64 µg/mL | MIC (E. coli GC 3226; GC3226, read-out: MINIMAL INHIBITORY CONCENTRATION MIC, pre-incubated in Human Serum): 32 µg/mL (≈ 41.1 µM) | MIC (E. coli GC 3226; GC3226, read-out: MINIMAL INHIBITORY CONCENTRATION MIC, pre-incubated in Mouse Serum): 2 µg/mL (≈ 2.57 µM) | MIC (E. coli GC 3226; GC3226, read-out: MINIMAL INHIBITORY CONCENTRATION MIC, pre-incubated in Water): > 64 µg/mL | MIC (E. coli GC 2203; GC2203, read-out: MINIMAL INHIBITORY CONCENTRATION MIC, pre-incubated in Human Serum): 32 µg/mL (≈ 41.1 µM) | MIC (E. coli GC 2203; GC2203, read-out: MINIMAL INHIBITORY CONCENTRATION MIC, pre-incubated in Mouse Serum): 1 µg/mL (≈ 1.29 µM) | MIC (E. coli GC 2203; GC2203, read-out: MINIMAL INHIBITORY CONCENTRATION MIC, pre-incubated in Water): > 64 µg/mL | MIC (E. coli GC 1073; GC1073, read-out: MINIMAL INHIBITORY CONCENTRATION MIC, pre-incubated in Human Serum): 32 µg/mL (≈ 41.1 µM) | MIC (E. coli GC 1073; GC1073, read-out: MINIMAL INHIBITORY CONCENTRATION MIC, pre-incubated in Mouse Serum): 2 µg/mL (≈ 2.57 µM) | MIC (E. coli GC 1073; GC1073, read-out: MINIMAL INHIBITORY CONCENTRATION MIC, pre-incubated in Water): > 64 µg/mL | MIC (S. typhimurium GC 2172; read-out: MINIMAL INHIBITORY CONCENTRATION MIC, pre-incubated in Human Serum): > 64 µg/mL | MIC (S. typhimurium GC 2172; read-out: MINIMAL INHIBITORY CONCENTRATION MIC, pre-incubated in Mouse Serum): 4 µg/mL (≈ 5.14 µM) | MIC (S. typhimurium GC 2172; read-out: MINIMAL INHIBITORY CONCENTRATION MIC, pre-incubated in Water): > 64 µg/mL | MIC (S. aureus GC 6466; GC6466, read-out: MINIMAL INHIBITORY CONCENTRATION MIC, pre-incubated in Human Serum): 1 µg/mL (≈ 1.29 µM) | MIC (S. aureus GC 6466; GC6466, read-out: MINIMAL INHIBITORY CONCENTRATION MIC, pre-incubated in Mouse Serum): 1 µg/mL (≈ 1.29 µM) | MIC (S. aureus GC 6466; GC6466, read-out: MINIMAL INHIBITORY CONCENTRATION MIC, pre-incubated in Water): 2 µg/mL (≈ 2.57 µM) | MIC (S. aureus GC 6467; GC6467, read-out: MINIMAL INHIBITORY CONCENTRATION MIC, pre-incubated in Human Serum): 2 µg/mL (≈ 2.57 µM) | MIC (S. aureus GC 6467; GC6467, read-out: MINIMAL INHIBITORY CONCENTRATION MIC, pre-incubated in Mouse Serum): 1 µg/mL (≈ 1.29 µM) | MIC (S. aureus GC 6467; GC6467, read-out: MINIMAL INHIBITORY CONCENTRATION MIC, pre-incubated in Water): 4 µg/mL (≈ 5.14 µM) | MIC (S. aureus GC 1079; GC1079, read-out: MINIMAL INHIBITORY CONCENTRATION MIC, pre-incubated in Human Serum): 2 µg/mL (≈ 2.57 µM) | MIC (S. aureus GC 1079; GC1079, read-out: MINIMAL INHIBITORY CONCENTRATION MIC, pre-incubated in Mouse Serum): 1 µg/mL (≈ 1.29 µM) | MIC (S. aureus GC 1079; GC1079, read-out: MINIMAL INHIBITORY CONCENTRATION MIC, pre-incubated in Water): 2 µg/mL (≈ 2.57 µM) | MIC (S. aureus GC 6335; GC6335, read-out: MINIMAL INHIBITORY CONCENTRATION MIC, pre-incubated in Human Serum): 2 µg/mL (≈ 2.57 µM) | MIC (S. aureus GC 6335; GC6335, read-out: MINIMAL INHIBITORY CONCENTRATION MIC, pre-incubated in Mouse Serum): 1 µg/mL (≈ 1.29 µM) | MIC (S. aureus GC 6335; GC6335, read-out: MINIMAL INHIBITORY CONCENTRATION MIC, pre-incubated in Water): 2 µg/mL (≈ 2.57 µM) | MIC (S. aureus GC 6469; GC6469, read-out: MINIMAL INHIBITORY CONCENTRATION MIC, pre-incubated in Human Serum): 2 µg/mL (≈ 2.57 µM) | MIC (S. aureus GC 6469; GC6469, read-out: MINIMAL INHIBITORY CONCENTRATION MIC, pre-incubated in Mouse Serum): 1 µg/mL (≈ 1.29 µM) | MIC (S. aureus GC 6469; GC6469, read-out: MINIMAL INHIBITORY CONCENTRATION MIC, pre-incubated in Water): 4 µg/mL (≈ 5.14 µM) | MIC (E. faecium GC 4556; GC4556, read-out: MINIMAL INHIBITORY CONCENTRATION MIC, pre-incubated in Human Serum): 4 µg/mL (≈ 5.14 µM) | MIC (E. faecium GC 4556; GC4556, read-out: MINIMAL INHIBITORY CONCENTRATION MIC, pre-incubated in Mouse Serum): 1 µg/mL (≈ 1.29 µM) | MIC (E. faecium GC 4556; GC4556, read-out: MINIMAL INHIBITORY CONCENTRATION MIC, pre-incubated in Water): 4 µg/mL (≈ 5.14 µM) | MIC (S. pyogenes GC 4563; GC4563, read-out: MINIMAL INHIBITORY CONCENTRATION MIC, pre-incubated in Human Serum): 0.25 µg/mL (≈ 0.321 µM) | MIC (S. pyogenes GC 4563; GC4563, read-out: MINIMAL INHIBITORY CONCENTRATION MIC, pre-incubated in Mouse Serum): 0.12 µg/mL (≈ 0.154 µM) | MIC (S. pyogenes GC 4563; GC4563, read-out: MINIMAL INHIBITORY CONCENTRATION MIC, pre-incubated in Water): 0.25 µg/mL (≈ 0.321 µM) | MIC (S. agalactiae GC 4564; GC4564, read-out: MINIMAL INHIBITORY CONCENTRATION MIC, pre-incubated in Human Serum): 1 µg/mL (≈ 1.29 µM) | MIC (S. agalactiae GC 4564; GC4564, read-out: MINIMAL INHIBITORY CONCENTRATION MIC, pre-incubated in Mouse Serum): 0.5 µg/mL (≈ 0.643 µM) | MIC (S. agalactiae GC 4564; GC4564, read-out: MINIMAL INHIBITORY CONCENTRATION MIC, pre-incubated in Water): 1 µg/mL (≈ 1.29 µM)

Source: patent publication US20070049564A1 (Wyeth, priority 2005, published 2007)
